{"source": "patent EP2662079A1", "about": "(Ordway Research Institute, Inc., priority 2012, dated 2013)", "key": {"[1]": {"tested_on": "chick chorioallantoic membrane (CAM)", "test": "Chorioallantoic membrane (CAM) model of angiogenesis", "format": "in vivo", "procedure": "In vivo neovascularization was examined by methods described previously. 9-12 Ten-day-old chick embryos were purchased from SPAFAS (Preston, CT) and incubated at 37°C with 55% relative humidity. A hypodermic needle was used to make a small hole in the shell concealing the air sac, and a second hole was made on the broad side of the egg, directly over an avascular portion of the embryonic membrane that was identified by candling. A false air sac was created beneath the second hole by the application of negative pressure at the first hole, causing the CAM to separate from the shell. A window approximately 1.0 cm^2 was cut in the shell over the dropped CAM with a small-crafts grinding wheel (Dremel, division of Emerson Electric Co.), allowing direct access to the underlying CAM. FGF2 (1µg/mL) was used as a standard proangiogenic agent to induce new blood vessel branches on the CAM of 10-day-old embryos. Sterile disks of No. 1 filter paper (Whatman International) were pretreated with 3 mg/mL cortisone acetate and 1 mmol/L PTU and air dried under sterile conditions. Thyroid hormone, hormone analogs, FGF2 or control solvents, and inhibitors were then applied to the disks and the disks allowed to dry. The disks were then suspended in PBS and placed on growing CAMs. […] At 24 hours, the MAPK cascade inhibitor PD 98059 was also added to CAMs topically by means of the filter disks.\nAfter incubation at 37°C with 55% relative humidity for 3 days, the CAM tissue directly beneath each filter disk was resected from control and treated CAM samples. Tissues were washed 3X with PBS, placed in 35-mm Petri dishes (Nalge Nunc), and examined under an SV6 stereomicroscope (Zeiss) at X50 magnification. Digital images of CAM sections exposed to filters were collected using a 3-charge-coupled device color video camera system (Toshiba) and analyzed with Image-Pro software (Media Cybernetics). The number of vessel branch points contained in a circular region equal to the area of each filter disk were counted. One image was counted in each CAM preparation, and findings from 8 to 10 CAM preparations were analyzed for each treatment condition (thyroid hormone or analogs, FGF2, FGF2 antibody, PD 98059). In addition, each experiment was performed 3 times. The resulting angiogenesis index is the mean ± SEM of new branch points."}, "[2]": {"tested_on": "Human medullary carcinoma cells (TT)", "format": "in vivo", "description": "Cells and cell culture. […] Tetrac versus Tetrac NP distribution in h-MTC. […] Penicillin streptomycin (1%) was present in both culture media. […] Cell implantation in nude mice. […] Water and food were provided ad libitum.\nTreatment of animals with unmodified or nanoparticulate Tetrac. […] Estimation of tumor response to Tetrac or nanoparticulate Tetrac. […] Statistical analysis for CAM and xenograft studies. […] Statistical significance was defined as P <0.05. RNA microarray analysis."}, "MDA-MB-231 cells": {"tested_on": "MDA-MB-231 cells", "test": "Cell proliferation in perfusion bellows cell culture system", "format": "cell-based", "settings": "Homo sapiens, 10^-6 M (Tetrac equivalent), added at day 0, by day 9", "procedure": "Tetrac and nanoparticulate Tetrac. Tetrac was custom-synthesized by Peptido GMBH (Bembach, Germany). The proprietary Tetrac nanoparticle was custom-synthesized by covalently-bonding of the outer ring hydroxyl of Tetrac to PLGA via an intervening linker. […] Cell culture for definition of effects of Tetrac formulations on tumor cell proliferation. MDA-MB-231 cells were purchased from ATCC (Manassas, VA). Cells were maintained until use in DMEM that contained 10% FBS. The incubator conditions were 5% CO2/95% 02 and 37° C. The action of unmodified Tetrac and nanoparticulate on MDA-MB-231 cells was determined in a perfusion bellows cell culture system we have recently described for quantitating pharmaceutical agent pharmacodynamics in vitro. (See Lin et al., J Steroid Biochem Mol Biol 113: 182-188 (2009)). In brief, the cell culture system is a disposable bioreactor capable of high density cell culture for studies of anti-cancer drugs. Bellows-induced alternate flow of culture medium and air through porous matrices where cells are grown provides a relatively low shear, high aeration, foam-free culture environment. Medium level is raised and lowered to submerge and expose matrices to create a dynamic interface between air and media on the cell surface. […] Flakes thereafter were sampled at regular intervals (Figure 44), subjected to trypsinization and the harvested cells counted. […]"}, "GL261 cells": {"tested_on": "GL261 cells", "test": "Sublethal damage repair (SLDR), split-dose x-rays", "format": "cell-based, murine", "procedure": "SLDR was measured at 10% immediate survival level as determined from the acute single dose curve for both control and Tetrac-treated cells in both growth states (i.e. exponentially growing and plateau phase cells. Flasks were irradiated with one-half of the total dose and returned to the 37°C incubator. At increasing periods of time, flasks were removed, and given the second half of the immediate 10% survival dose. Survival was measured at 0, 0.5, 1.0, 1.5, 2.0, 3.0, 4.0, 6.0, 8.0, and 10.0 hours after the initial dose.\nTo investigate the effects of Tetrac on SLDR and PLDR, cells were chosen that had been given a one-hour treatment with Tetrac at two different times, i.e., at 70 and 270 hours post-seeding)."}}}
{"smiles": "O=C(O)Cc1cc(I)c(Oc2cc(I)c(O)c(I)c2)c(I)c1", "note": "[Tetrac, 3,3',5,5'-tetraiodothyroacetic acid]", "values": [{"measurement": "effect of Tetrac alone on angiogenesis", "setting": "[1]; CAM model (Figure 3C)", "value": "no effect"}, {"measurement": "Mean Branch points", "setting": "[1]; CAM model, FGF (1.25 µg/ml) + compound at 10 µg/plug, n=8", "value": "81± 8"}, {"measurement": "effect on the action of T4 in the CAM model", "setting": "[1]; Tetrac 0.1 µmol/L", "value": "inhibited"}, {"measurement": "reduction of tumor mass compared to controls", "setting": "[2]; Tetrac 10 mg/kg i.p., nanoparticulate Tetrac 1 mg/kg i.p., end of study", "value": "65-80%"}, {"measurement": "decrease of tumor tissue hemoglobin content", "setting": "[2]; Tetrac 10 mg/kg or Tetrac NP 1 mg/kg i.p. daily for 3 weeks", "value": 66, "unit": "%"}, {"measurement": "reduction in tumor-associated neovascularization (hemoglobin levels in tumor tissue)", "setting": "[2]; Tetrac 10 mg/kg or Tetrac NP 1 mg/kg i.p. daily for 21 days", "value": "70-80%"}, {"measurement": "tumor size", "setting": "[2]; Tetrac 10 mg/kg or Tetrac NP 1 mg/kg i.p. daily, over 21 days", "value": "< 100", "unit": "mm^3"}, {"measurement": "time to detected reduction in tumor size", "setting": "[2]; after initiation of treatment", "value": "≤ 2", "unit": "days"}, {"measurement": "inhibition at 1 µM", "setting": "MDA-MB-231 cells", "value": "> 30", "unit": "%"}, {"measurement": "repair of x-ray damage", "setting": "GL261 cells; Tetrac 2uM, 6 to 8 hours post-irradiation (Figure 58)", "value": "no repair of x-ray damage"}, {"measurement": "recovery ratio", "setting": "GL261 cells; exponential Tetrac treated cells, 2 hours after the first dose", "value": 1.8}, {"measurement": "factor by which Tetrac reduced SLDR", "setting": "GL261 cells; exponential cells", "value": 1.8}, {"measurement": "survival relative to survival seen at 0 hours", "setting": "GL261 cells; plateau phase cells with Tetrac, 3 hours after the initial dose", "value": "approximately 36%"}, {"measurement": "decrease in cellular repair (factor)", "setting": "GL261 cells; plateau phase cells, three hours post-irradiation", "value": "~3"}]}
